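Step 1: Grow cells in 96-well plates. Step 2: Expose to compound for 48 hours at 5 concentrations. Step 3: Interpolate endpoints linearly; if unreached, use highest concentration. GI50 is the concentration that inhibits growth by half.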 Active and inactive are the calls of the source. Cut-off read from the data, not from the text of the source: active = GI50 up to about 1.1 µM and inactive = higher.
Tests used:
Experiment in all cases: NCI anticancer screen, dose series, 48 h
786-0 = system: 786-0
A498 = system: A498
A549 = system: A549
ACHN = system: ACHN
BT-549 = system: BT-549
CAKI-1 = system: CAKI-1
CCRF-CEM = system: CCRF-CEM
COLO 205 = system: COLO 205
DU-145 = system: DU-145
HCC 2998 = system: HCC 2998
HCT-116 = system: HCT-116
HCT-15 = system: HCT-15
HOP-62 = system: HOP-62
HOP-92 = system: HOP-92
HT-29 = system: HT-29
Hs-578T = system: Hs-578T
IGROV-1 = system: IGROV-1
K562 = system: K562
KM12 = system: KM12
M14 = system: M14
MCF7 = system: MCF7
MDA-MB-231 = system: MDA-MB-231
MDA-MB-435 = system: MDA-MB-435
MDA-N = system: MDA-N
MOLT-4 = system: MOLT-4
Malme-3M = system: Malme-3M
NCI-H226 = system: NCI-H226
NCI-H23 = system: NCI-H23
NCI-H460 = system: NCI-H460
NCI-H522 = system: NCI-H522
NCI/ADR-RES = system: NCI/ADR-RES
OVCAR-3 = system: OVCAR-3
OVCAR-4 = system: OVCAR-4
OVCAR-5 = system: OVCAR-5
OVCAR-8 = system: OVCAR-8
PC-3 = system: PC-3
RPMI-8226 = system: RPMI-8226
RXF 393 = system: RXF 393
SF-268 = system: SF-268
SF-295 = system: SF-295
SF-539 = system: SF-539
SK-MEL-28 = system: SK-MEL-28
SK-MEL-2 = system: SK-MEL-2
SK-MEL-5 = system: SK-MEL-5
SK-OV-3 = system: SK-OV-3
SN12C = system: SN12C
SNB-75 = system: SNB-75
SR = system: SR
SW-620 = system: SW-620
T47D = system: T47D
TK-10 = system: TK-10
U-251 = system: U-251
UACC-257 = system: UACC-257
UACC-62 = system: UACC-62
UO-31 = system: UO-31
EKVX = system: EKVX
LOX IMVI = system: LOX IMVI
SNB-19 = system: SNB-19

O=[N+]([O-])c1ccc(N2N=C(c3ccc4ccccc4c3O)CC2c2ccc(Cl)cc2)c([N+](=O)[O-])c1 (stereo not drawn)
GI50 (786-0): 44 µM (inactive) | GI50 (A498): 27.2 µM (inactive) | GI50 (A549): 30.4 µM (inactive) | GI50 (ACHN): 37.2 µM (inactive) | GI50 (BT-549): > 100 µM (inactive) | GI50 (CAKI-1): > 100 µM (inactive) | GI50 (CCRF-CEM): 14.2 µM (inactive) | GI50 (COLO 205): 29.6 µM (inactive) | GI50 (DU-145): 48.8 µM (inactive) | GI50 (HCC 2998): 46.5 µM (inactive) | GI50 (HCT-116): 28 µM (inactive) | GI50 (HCT-15): 30.3 µM | GI50 (HOP-62): 41.2 µM (inactive) | GI50 (HOP-92): 33 µM (inactive) | GI50 (HT-29): 33 µM (inactive) | GI50 (Hs-578T): 37.9 µM (inactive) | GI50 (IGROV-1): 21.5 µM (inactive) | GI50 (K562): 14.5 µM (inactive) | GI50 (KM12): 21.8 µM (inactive) | GI50 (M14): 50.4 µM (inactive) | GI50 (MCF7): 20.3 µM (inactive) | GI50 (MDA-MB-231): 20.5 µM (inactive) | GI50 (MDA-MB-435): 16.9 µM (inactive) | GI50 (MDA-N): 16.7 µM (inactive) | GI50 (MOLT-4): 17 µM (inactive) | GI50 (Malme-3M): 21.5 µM (inactive) | GI50 (NCI-H226): 50.8 µM (inactive) | GI50 (NCI-H23): > 100 µM (inactive) | GI50 (NCI-H460): 25.4 µM (inactive) | GI50 (NCI-H522): 22.1 µM (inactive) | GI50 (NCI/ADR-RES): 30.6 µM (inactive) | GI50 (OVCAR-3): 24.8 µM (inactive) | GI50 (OVCAR-4): 55.1 µM (inactive) | GI50 (OVCAR-5): > 100 µM (inactive) | GI50 (OVCAR-8): 37.3 µM (inactive) | GI50 (PC-3): 23.8 µM (inactive) | GI50 (RPMI-8226): 12.8 µM (inactive) | GI50 (RXF 393): 28.6 µM (inactive) | GI50 (SF-268): 45.7 µM (inactive) | GI50 (SF-295): 34.7 µM (inactive) | GI50 (SF-539): 32.3 µM (inactive) | GI50 (SK-MEL-28): 41.8 µM (inactive) | GI50 (SK-MEL-2): 33.6 µM (inactive) | GI50 (SK-MEL-5): 22.2 µM (inactive) | GI50 (SK-OV-3): 80.2 µM (inactive) | GI50 (SN12C): 33.2 µM (inactive) | GI50 (SNB-75): 73.5 µM (inactive) | GI50 (SR): 18.2 µM (inactive) | GI50 (SW-620): 29.9 µM (inactive) | GI50 (T47D): 51.4 µM (inactive) | GI50 (TK-10): 53.1 µM (inactive) | GI50 (U-251): 25.9 µM (inactive) | GI50 (UACC-257): 32.1 µM (inactive) | GI50 (UACC-62): > 100 µM (inactive) | GI50 (UO-31): > 100 µM (inactive)

CCOC(=O)C1=CN/C(=C(/C)C(=O)OC)SC1C(=O)OCC (stereo not drawn)
GI50 (786-0): > 100 µM (inactive) | GI50 (A498): > 100 µM (inactive) | GI50 (A549): > 100 µM (inactive) | GI50 (ACHN): > 100 µM (inactive) | GI50 (BT-549): > 90.6 µM (inactive) | GI50 (CAKI-1): > 100 µM (inactive) | GI50 (CCRF-CEM): > 61 µM (inactive) | GI50 (COLO 205): > 100 µM (inactive) | GI50 (DU-145): > 100 µM (inactive) | GI50 (EKVX): > 100 µM (inactive) | GI50 (HCC 2998): > 100 µM (inactive) | GI50 (HCT-116): > 100 µM (inactive) | GI50 (HCT-15): > 100 µM | GI50 (HOP-62): > 100 µM (inactive) | GI50 (HOP-92): > 76.9 µM (inactive) | GI50 (HT-29): > 100 µM (inactive) | GI50 (Hs-578T): > 100 µM (inactive) | GI50 (IGROV-1): > 100 µM (inactive) | GI50 (K562): 17.5 µM (inactive) | GI50 (KM12): > 100 µM (inactive) | GI50 (LOX IMVI): > 100 µM (inactive) | GI50 (M14): > 100 µM (inactive) | GI50 (MCF7): > 93.5 µM (inactive) | GI50 (MDA-MB-231): > 100 µM (inactive) | GI50 (MDA-MB-435): > 100 µM (inactive) | GI50 (MDA-N): > 100 µM (inactive) | GI50 (MOLT-4): 25.6 µM (inactive) | GI50 (Malme-3M): > 100 µM (inactive) | GI50 (NCI-H226): > 100 µM (inactive) | GI50 (NCI-H23): > 100 µM (inactive) | GI50 (NCI-H460): > 90.4 µM (inactive) | GI50 (NCI-H522): > 76.7 µM (inactive) | GI50 (NCI/ADR-RES): > 84.3 µM (inactive) | GI50 (OVCAR-3): > 100 µM (inactive) | GI50 (OVCAR-4): > 100 µM (inactive) | GI50 (OVCAR-5): > 100 µM (inactive) | GI50 (OVCAR-8): > 100 µM (inactive) | GI50 (PC-3): 69.7 µM (inactive) | GI50 (RPMI-8226): 68.9 µM (inactive) | GI50 (RXF 393): > 100 µM (inactive) | GI50 (SF-268): > 100 µM (inactive) | GI50 (SF-295): > 100 µM (inactive) | GI50 (SF-539): > 100 µM (inactive) | GI50 (SK-MEL-28): > 100 µM (inactive) | GI50 (SK-MEL-2): > 100 µM (inactive) | GI50 (SK-MEL-5): 58.3 µM (inactive) | GI50 (SK-OV-3): > 100 µM (inactive) | GI50 (SN12C): > 100 µM (inactive) | GI50 (SNB-19): 98.2 µM (inactive) | GI50 (SNB-75): > 100 µM (inactive) | GI50 (SR): 47.8 µM (inactive) | GI50 (SW-620): > 100 µM (inactive) | GI50 (T47D): 57.9 µM (inactive) | GI50 (TK-10): > 92.9 µM (inactive) | GI50 (U-251): > 100 µM (inactive) | GI50 (UACC-257): > 100 µM (inactive) | GI50 (UACC-62): > 100 µM (inactive) | GI50 (UO-31): > 78.5 µM (inactive)

From ChEMBL document CHEMBL1201862, “PubChem BioAssay data set” (2004)
